pIC50: −log10 of the molar value.
Experiments:
human A2B receptors = human A2B receptors (Homo sapiens (Human), UniProt P29275); assay: A2B antagonism in cAMP cell-based assay (LANCE cAMP, HEK293); settings: HEK293 cells expressing human A2B receptor
Procedure: (§1) Measurement of A2A and A2B Antagonism in cAMP Cell-Based Assay
(§2) The ability of compounds to antagonize human A2A and A2B adenosine receptors was determined using a kit to measure changes in intracellular cyclic AMP levels (LANCE cAMP 384 Kit, Perkin Elmer, Cat. No. AD0264). HEK293 cells recombinantly expressing either human A2A or A2B receptors, previously frozen in Recovery Medium (Life Technologies, Cat. No. 12648-010) were thawed and diluted into stimulation buffer (HBSS (Hyclone SH 30268.01), 5 mM HEPES (Gibco 15630-106), 200 nM rolipram (Tocris, Cat. No. 0905), and 1.5% (V/v) BSA stabilizer (kit component). The cell suspension was centrifuged at 200×g for 10 min and then resuspended in stimulation buffer, supplemented with a 1:10 000 dilution of Alexa Fluor 647 anti-cAMP antibody, to a density of 6.0×10^5 cells/mL. A Labcyte Echo 550 acoustic dispenser was used to transfer up to 25 nL of test compound dissolved in DMSO into the wells of a dry Optiplate-384 plate (Perkin Elmer, Cat. No. 6008289). All subsequent liquid additions were performed using a multichannel pipettor. Next, 5 μL of the cell suspension was added to the wells of the Optiplate-384 and incubated for 30 min. at 37° C. and 5% CO2 in a humidified environment. After this time 5 μL of either 300 nM or 600 nM adenosine (Sigma Cat. No. A9251) for A2A and A2B respectively was added and incubated for 30 minutes at 37° C. and 5% CO2 in a humidified environment. At this time detection mix was prepared by combining the LANCE Eu-W8044 labeled streptavidin and Biotin-cAMP in detection buffer according to the manufacturers protocol. 10 μL of the detection mix was added to each well of the Optiplate-384 which was covered with a plate seal and incubated under ambient conditions for 2 hours prior to reading the plate using an Envision (Perkin Elmer, Waltham, Mass.) multimode plate reader. Data was normalized by defining minimal effect as stimulation in the presence of 0.25% (v/v) DMSO and maximal effect as stimulation in the presence of 1 μM ZM241385 (Cayman, Cat. No. 1036). Curve fitting of the percent effect data versus the log of compound concentration used a 4-parameter concentration response curve fitting algorithm to calculate IC50 values. Compound concentrations tested were 10,000, 3,333, 1,111, 370.4, 123.4, 41.2, 13.7, 4.6, 1.5 and 0.5 nM with 0.25% residual DMSO.

human A2A receptors = human A2A receptors (Homo sapiens (Human), UniProt P29274); assay: A2A antagonism in cAMP cell-based assay (LANCE cAMP, HEK293); settings: HEK293 cells expressing human A2A receptor
Procedure: as §1, §2

[1] = target: human A2b adenosine receptor (Homo sapiens (Human), UniProt P29275); assay: A2b radioligand filtration binding assay; settings: membranes from HEK293 cells expressing human A2b receptor
Summary of the method: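 Membranes from HEK293 cells expressing human A2b receptor preincubated with compound 15 to 30 min at room temperature, then tritiated proprietary A2b antagonist (diluted to 14 nM before addition) added in PBS pH 7.4 for 60 min at room temperature. Bound radioactivity by filtration and scintillation; non-specific binding with 20 μM NECA; IC50 by 4-parameter logistic fit.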

[2] = target: human A2a adenosine receptor (Homo sapiens (Human), UniProt P29274); assay: A2a receptor affinity radioligand binding assay ([3H] SCH58261); settings: membranes from HEK293 or CHO cells expressing human A2a receptor
Summary of the method: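 Membranes from HEK293 or CHO cells expressing human A2a were preincubated 15–30 min at room temperature with compound, then incubated 60 min at room temperature with [3H]SCH58261 (diluted to 4 nM) in 50 mM Tris pH 7.4, 10 mM MgCl2, 0.005% Tween20. Bound radioactivity was collected by filtration; nonspecific binding defined with 1 μM ZM241385; IC50 from 4-parameter logistic fit.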

Sequence of human A2a adenosine receptor (P29274 whole entry): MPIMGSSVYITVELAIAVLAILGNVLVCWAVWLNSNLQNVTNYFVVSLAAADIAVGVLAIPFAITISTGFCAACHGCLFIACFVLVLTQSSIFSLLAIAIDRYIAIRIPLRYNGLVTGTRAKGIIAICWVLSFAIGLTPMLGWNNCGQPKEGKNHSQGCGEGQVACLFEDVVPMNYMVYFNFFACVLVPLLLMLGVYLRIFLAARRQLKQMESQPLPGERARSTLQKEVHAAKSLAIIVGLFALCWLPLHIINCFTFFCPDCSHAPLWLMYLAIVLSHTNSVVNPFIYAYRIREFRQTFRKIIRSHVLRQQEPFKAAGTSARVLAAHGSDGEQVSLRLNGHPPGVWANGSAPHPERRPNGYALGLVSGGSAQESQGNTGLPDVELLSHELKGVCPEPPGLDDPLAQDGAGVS
Sequence of human A2A receptors (P29274 whole entry): as above
Sequence of human A2b adenosine receptor (P29275 whole entry): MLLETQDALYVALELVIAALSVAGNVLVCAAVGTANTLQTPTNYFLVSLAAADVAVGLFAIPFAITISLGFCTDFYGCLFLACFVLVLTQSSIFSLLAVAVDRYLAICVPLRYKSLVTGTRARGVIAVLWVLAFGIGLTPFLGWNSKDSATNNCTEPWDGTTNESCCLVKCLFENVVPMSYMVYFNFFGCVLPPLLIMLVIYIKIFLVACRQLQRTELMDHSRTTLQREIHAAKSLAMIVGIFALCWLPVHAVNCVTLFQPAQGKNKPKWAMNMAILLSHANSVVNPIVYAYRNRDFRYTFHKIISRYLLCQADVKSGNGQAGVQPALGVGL
Sequence of human A2B receptors (P29275 whole entry): as above

pIC50 (human A2B receptors) | pIC50 (human A2A receptors) | pIC50 [1] | pIC50 [2] | SMILES
5.84 | 7.62 |  |  | COc1cc2nc(N)n3nc(C4CC(C)CN(c5cn(C(C)(C)CO)nc5C)C4)nc3c2cc1F (racemic) [Example 155, racemic, trans-2-(4-(3-(5-amino-9-fluoro-8-methoxy-[1,2,4]triazolo [1,5-c]quinazolin-2-yl)-5-methylpiperidin-1-yl)-3-methyl-1H-pyrazol-1-yl)-2-methylpropan-1-ol]
6.45 | 8.02 |  |  | COc1cc2nc(N)n3nc(C4CC(C)CN(c5cnn(C(C)(C)CO)c5)C4)nc3c2cc1F (racemic) [Example 156, racemic, trans-2-(4-(3-(5-amino-9-fluoro-8-methoxy-[1,2,4]triazolo[1,5-c]quinazolin-2-yl)-5-methylpiperidin-1-yl)-1H-pyrazol-1-yl)-2-methylpropan-1-ol]
5.35 | 7.48 |  |  | COc1cc2nc(N)n3nc([C@@H]4C[C@H](C)CN(c5cnn(CC(C)(C)O)c5)C4)nc3c2cc1F (single isomer, unassigned) [Example 157, 1-(4-((3R,5S or 3S,5R)-3-(5-amino-9-fluoro-8-methoxy-[1,2,4]triazolo[1,5-c]quinazolin-2-yl)-5-methylpiperidin-1-yl)-1H-pyrazol-1-yl)-2-methylpropan-2-ol]
7.48 | 8.96 |  |  | COc1cc2nc(N)n3nc([C@H]4C[C@@H](C)CN(c5cnn(CC(C)(C)O)c5)C4)nc3c2cc1F (single isomer, unassigned) [Example 158, 1-(4-((3S,5R or 3R,5S)-3-(5-amino-9-fluoro-8-methoxy-[1,2,4]triazolo[1,5-c]quinazolin-2-yl)-5-methylpiperidin-1-yl)-1H-pyrazol-1-yl)-2-methylpropan-2-ol]
7.53 | 9.00 |  |  | COc1cc(F)cc2c1nc(N)n1nc(C3CC(C)CN(c4cnn(CC(C)(C)O)c4)C3)nc21 (single isomer, unassigned) [Example 159, 1-(4-((3R,5S or 3S,5R)-3-(5-amino-9-fluoro-7-methoxy-[1,2,4]triazolo[1,5-c]quinazolin-2-yl)-5-methylpiperidin-1-yl)-1H-pyrazol-1-yl)-2-methylpropan-2-ol]
6.19 | 8.06 |  |  | COc1cc(F)cc2c1nc(N)n1nc(C3CC(C)CN(c4cnn(CC(C)(C)O)c4)C3)nc21 (single isomer, unassigned) [Example 160, 1-(4-((3S,5R or 3R,5S)-3-(5-amino-9-fluoro-7-methoxy-[1,2,4]triazolo[1,5-c]quinazolin-2-yl)-5-methylpiperidin-1-yl)-1H-pyrazol-1-yl)-2-methylpropan-2-ol]
 | 9.40 |  |  | COc1cc(F)cc2c1nc(N)n1nc(C3CC(C)CN(c4cn(C(C)C(C)O)nc4C)C3)nc21 (single isomer, unassigned) [Example 224, (2S,3S or 2R,3R)-3-(4-((3R,5S or 3S,5R)-3-(5-amino-9-fluoro-7-methoxy-[1,2,4]triazolo[1,5-c]quinazolin-2-yl)-5-methylpiperidin-1-yl)-3-methyl-1H-pyrazol-1-yl)butan-2-ol]
 | 9.40 |  |  | COc1cc(F)cc2c1nc(N)n1nc(C3CC(C)CN(c4cn(C(C)C(C)O)nc4C)C3)nc21 (single isomer, unassigned) [Example 225, (2R,3R or 2S,3S)-3-(4-((3R,5S or 3S,5R)-3-(5-amino-9-fluoro-7-methoxy-[1,2,4]triazolo[1,5-c]quinazolin-2-yl)-5-methylpiperidin-1-yl)-3-methyl-1H-pyrazol-1-yl)butan-2-ol]
 | 7.75 |  |  | COc1cc(F)cc2c1nc(N)n1nc(C3CC(C)CN(c4cn(C(C)C(C)O)nc4C)C3)nc21 (single isomer, unassigned) [Example 226, (2R,3R or 2S,3S)-3-(4-((3S,5R or 3R,5S)-3-(5-amino-9-fluoro-7-methoxy-[1,2,4]triazolo[1,5-c]quinazolin-2-yl)-5-methylpiperidin-1-yl)-3-methyl-1H-pyrazol-1-yl)butan-2-ol]
 | 7.40 |  |  | COc1cc(F)cc2c1nc(N)n1nc(C3CC(C)CN(c4cn(C(C)C(C)O)nc4C)C3)nc21 (single isomer, unassigned) [Example 227, (2S,3S or 2R,3R)-3-(4-((3S,5R or 3R,5S)-3-(5-amino-9-fluoro-7-methoxy-[1,2,4]triazolo[1,5-c]quinazolin-2-yl)-5-methylpiperidin-1-yl)-3-methyl-1H-pyrazol-1-yl)butan-2-ol]
 |  | 8.10 | 9.40 | Cc1cc2nc(N)n3nc([C@@H]4CC[C@H](C)N(c5cnn(CC(C)(C)O)c5)C4)nc3c2cc1F [Example 112, 1-(4-((2S,5R)-5-(5-amino-9-fluoro-8-methyl-[1,2,4]triazolo [1,5-c]quinazolin-2-yl)-2-methylpiperidin-1-yl)-1H-pyrazol-1-yl)-2-methylpropan-2-ol]
 |  | 6.33 | 7.24 | Cn1cc(N2CCC[C@@H](c3nc4c5cc(Cl)cc(Cl)c5nc(N)n4n3)C2)cn1 [Example 113, (R)-7,9-dichloro-2-(1-(1-methyl-1H-pyrazol-4-yl)piperidin-3-yl)-[1,2,4]triazolo[1,5-c]quinazolin-5-amine]
 |  | 6.33 | 8.39 | COc1cc2nc(N)n3nc([C@@H]4CCCN(c5cn(CS(C)(=O)=O)nc5C)C4)nc3c2cc1F [Example 129, (R)-9-fluoro-8-methoxy-2-(1-(3-methyl-1-((methylsulfonyl)methyl)-1H-pyrazol-4-yl)piperidin-3-yl)-[1,2,4]triazolo[1,5-c]quinazolin-5-amine]
 |  | 7.10 | 8.92 | COc1cc2nc(N)n3nc([C@@H]4CCCN(c5cnn(CS(C)(=O)=O)c5C)C4)nc3c2cc1F [Example 130, (R)-9-fluoro-8-methoxy-2-(1-(5-methyl-1-((methylsulfonyl)methyl)-1H-pyrazol-4-yl)piperidin-3-yl)-[1,2,4]triazolo[1,5-c]quinazolin-5-amine]
 |  | 7.18 | 7.93 | COc1cc2nc(N)n3nc([C@@H]4CCCN(c5cnn(CS(C)(=O)=O)c5)C4)nc3c2cc1F [Example 131, (R)-9-fluoro-8-methoxy-2-(1-(1-((methylsulfonyl)methyl)-1H-pyrazol-4-yl)piperidin-3-yl)-[1,2,4]triazolo[1,5-c]quinazolin-5-amine]
 |  | 6.62 | 8.17 | COc1cc2nc(N)n3nc([C@@H]4CCCN(c5cn(CS(C)(=O)=O)nc5C(F)F)C4)nc3c2cc1F [Example 132, (R)-2-(1-(3-(difluoromethyl)-1-((methylsulfonyl)methyl)-pyrazol-4-yl)piperidin-3-yl)-9-fluoro-8-methoxy-[1,2,4]triazolo[1,5-c]quinazolin-5-amine]
 |  | 5.56 | 9.10 | COc1cc2nc(N)n3nc([C@H]4CN(c5cn(CC(C)(C)O)nc5C)CCO4)nc3c2cc1F [Example 140, (R)-1-(4-(2-(5-amino-9-fluoro-8-methoxy-[1,2,4]triazolo[1,5-c]quinazolin-2-yl)morpholino)-3-methyl-1H-pyrazol-1-yl)-2-methylpropan-2-ol]
 |  | 5.76 | 7.62 | COc1cc2nc(N)n3nc([C@H]4CN(c5cnn(CC(C)(C)O)c5C)CCO4)nc3c2cc1F [Example 141, (R)-1-(4-(2-(5-amino-9-fluoro-8-methoxy-[1,2,4]triazolo[1,5-c]quinazolin-2-yl)morpholino)-5-methyl-1H-pyrazol-1-yl)-2-methylpropan-2-ol]
